Here are results for 15 compounds from patent publication US7335770B2, “Triazine compounds and their analogs, compositions, and methods” (Reddy U5 Therapeutics, Inc., priority 2004, dated 2008).

What all share (type): cell-based
The subject of assay [1] is MCP1. As to the kind of experiment: inhibition of TNF-induced MCP1. Particulars: for IC50: in vitro. Here is the method:
(§1) The activity of the compounds of the present invention in inhibiting glycated protein- and AGE-induced inflammation can be determined using the assays described herein and in U.S. patent application Ser. No. 10/026,335, which is herein incorporated in its entirety. Such assays comprise measurement of the specific activity of biological components involved in a known cellular response. The assays provide a measurable response in which the activity of the compounds is determined. One assay comprises measurement of the effects of compounds on an inflammatory response by cells to the presence of a stimulating agent. Yet another assay comprises endothelial cells that are stimulated by the addition of a glycated protein, the stimulating agent. The endothelial cells respond by producing specific cytokines. The amount of cytokines produced are determined by measurement protocols known to those skilled in the art. The compounds of the present invention are then added to the assay and the production of cytokines is measured. From the comparison of the assay without the compound with the assay with the compound, the biological effect of the compound can be determined. The compound may have an inhibitory effect, a stimulatory effect, or no effect at all.
The amount and type of cytokine produced can be determined using immunological methods, such as ELISA assays. The methods of the present invention are not limited by the type of assay used to measure the amount of cytokine produced, and any methods known to those skilled in the art and later developed can be used to measure the amount of cytokines produced in response to the stimulating agent and to the compound having unknown activity.
(§2) Assays for determining the activity of compounds capable of modulating inflammation include those taught in U.S. patent application Ser. No. 10/026,335 and 09/969,013, which are both expressly incorporated by reference. In general, once the baseline response to the stimulating agent for the production of cytokines by the endothelial cells is established, thus comprising the control levels for the screening assay, the methods comprise addition of compounds of the present invention. The effect of the compound on the baseline response is determined by comparing the amount of cytokine produced in the presence of the stimulating agent and the amount of cytokine produced in the presence of the stimulating agent and the compound of the present invention. In a preferred method, compounds that have inhibitory effects on the inflammation of the cells in the presence of glycated albumin are then used as therapeutic agents. One or more compounds may be added to the screening assay. Combinations or mixtures of compounds can be added. Different amounts and formulations of the compounds are added to determine the effects on the screening assay. The screening assay may also be used to determine stimulatory compounds or compounds that have no effects in the assay.

The test system of assay [2] is VCAM1. Kind of assay: inhibition of TNF-induced VCAM1. The note with it: for IC50: in vitro. Here is the method: as §1
An aspect of the present invention comprises methods and compositions for the treatment of diseases, preconditions or pathologies associated with inflammatory cytokines and other inflammation related molecules including, but not limited to IL-6, VCAM-1, AGE-induced MCP-1, (monocyte chemoattractant protein 1), heme oxygenase, insulin-like growth factor, selectins, IP-10, MIG and I-TAC, NF-κB, IL-1β (interleukin 1β), IL-11 (interleukin 11), m-CSF (macrophage colony stimulating factor), fibrinogen, TNF-α (tumor necrosis factor α), adhesion molecules, selecting, VCAM-1 (Vascular Cell Adhesion Molecule-1), CRP (C-reactive protein), and PAI-1 (plasminogen activator inhibitor-1). Examples of such diseases include the pathogenesis of atherosclerosis and the development of diabetic vasculopathy in type II diabetes. For example, affecting the activity or level of TNFα is a key mediator of tissue damage following acute or chronic inflammatory reactions. The present invention contemplates providing compositions and methods that modulate the effects of cytokines and inflammatory molecules such as TNFα, IL-6, VCAM-1, IP-10, MIG, I-TAC and AGE-induced MCP-1, and treat the associated diseases, acute or chronic conditions, preconditions and pathologies.
as §2

Assay [3] has as its system IL6. As to the kind of experiment: inhibition of TNF-induced IL6 production. The note with it: for IC50: given as '50% at x μM', read-out: Inhibition of TNF-induced IL6 production: concentration giving 50% inhibition.

Counter-ions that a name gives are not always drawn.

As to `CCN1CCCC(Oc2nc(Nc3ccc(OC)c(Cl)c3)nc(NC3CCCCCC3)n2)C1` (stereo not drawn) [drawing 622], the IC50 was found to be 4.2 µM in assay [1] and 6 µM in assay [2].

Turning to `COc1ccc(Nc2nc(NC(C)C)nc(Oc3ccc(C#CC(C)(C)O)cc3)n2)cc1Cl` [drawing 627], the IC50 was 3 µM in assay [1] and 5.7 µM in assay [2]. In the same order, the values of `COc1ccc(Nc2nc(NC3CCCCCC3)nc(OCC3CCCN3C)n2)cc1Cl` (stereo not drawn) [drawing 614] are 3 µM and 2.5 µM.

Consider `COc1ccc(Nc2nc(NC3CCCCCC3)nc(Oc3ccc(C=O)cc3)n2)cc1Cl` [drawing 623], for which the IC50 in assay [1] amounted to 6 µM; in assay [2], 5.2 µM.

As to `COc1ccc(Nc2nc(NCCCCCNC(=O)CCCCC3SCC4NC(=O)NC43)nc(NC3CCCCCC3)n2)cc1Cl` (stereo not drawn) [drawing 609, 5-(2-Oxo-hexahydro-thieno[3,4-d]imi-dazol-4-yl)-pentanoicacid {5-[4-(3-chloro-4-methoxy-phenylamino)-6-cycloheptylamino-[1,3,5]tri-azin-2-ylamino]-pentyl}-amide], the IC50 in assay [3] was 5 µM. On the same count and under the same terms, the value for `CN1CCC(N(C)c2nc(Nc3cccc([N+](=O)[O-])c3)nc(NC3CCCCCC3)n2)CC1` [drawing 606, N-Cycloheptyl-N′-methyl-N′-(1-methyl-piper-idin-4-yl)-N″-(3-nitro-phenyl)-[1,3,5]tri-azine-2,4,6-triamine] was 3.3 µM. For `COc1ccc(Nc2nc(NC3CCCCCC3)nc(Sc3c(Cl)cccc3Cl)n2)cc1Cl` [drawing 631], the inhibition (in general, the share of the control response that was lost under treatment) at 10 µM in assay [1] (@ 10 uM concentration, read-out: TNF-induced MCP1, In-vitro % of inhibition) came to 11%; in assay [2] (@ 10 uM concentration, read-out: TNF-induced VCAM1, In-vitro % of inhibition), 6%. For the compound `CCN1CCCC1CNc1nc(Nc2ccc(OC)c(F)c2)nc(N2CCN(CC(=O)N3CCCC3)CC2)n1` (stereo not drawn) [drawing 613, 2-{4-[4-[(1-Ethyl-pyrrolidin-2-ylmethyl)-amino]-6-(3-fluoro-4-meth-oxy-phenylamino)-[1,3,5tri-azin-2-yl]-pipera-zin-1-yl}-1-pyrrolidin-1-yl-eth-anone dihydrogen chloride salt], in assay [3] (at 10 μM), the inhibition at 10 µM was 42%. Take `Cc1ccc(Nc2nc(NC3CCCCCC3)nc(N(C)C3CCN(C)CC3)n2)cc1F` [drawing 605, N-Cycloheptyl--N′-(3-fluoro-4-methyl-phenyl)-N″-meth-yl-N″-(1-methyl-piperidin-4-yl)-[1,3,5]tri-azine-2,4,6-triamine]: the IC50 in assay [3] amounted to 3.6 µM. Same read-out and setting: the value for `COc1ccc(Nc2nc(NCCNC(=O)OC(C)(C)C)nc(NC3CCCCCC3)n2)cc1Cl` [drawing 602, {2-[4-(3-Chloro-4-meth-oxy-phenylamino)-6-cyclo-heptylamino-[1,3,5]triazin-2-ylamino]-eth-yl}-carbamic acid tert-butyl ester] was 15 µM; that for `COc1ccc(Nc2nc(NCCN)nc(NC3CCCCCC3)n2)cc1Cl` [drawing 603, N-(2-Amino-eth-yl)-N′-(3-chloro-4-methoxy-phe-nyl)-N″-cycloheptyl-[1,3,5]triazine-2,4,6-tri-amine] was 2.7 µM. As for `COc1ccc(Nc2nc(NC3CCCCCC3)nc(Oc3ccc(C#CC(C)(C)O)cc3)n2)cc1Cl` [drawing 620], the IC50 was determined as 3.7 µM in assay [1] and 7 µM in assay [2].

With `COc1ccc(Nc2nc(NC3CCCCCC3)nc(Oc3ccccc3C#CC(C)(C)O)n2)cc1Cl` [drawing 621], the IC50 in assay [1] came out at 6.5 µM; in assay [2], 7 µM. For `COc1ccc(Nc2nc(NC3CCCCCC3)nc(OC3CCN(C)CC3)n2)cc1Cl` [drawing 615], the IC50 was found to be 4.3 µM in assay [1] and 4.5 µM in assay [2].

For `COc1ccc(Nc2nc(NC3CCCCCC3)nc(OC3CCCN(C(C)=O)C3)n2)cc1Cl` (stereo not drawn) [drawing 617], the figures for the IC50 in assay [1] and in assay [2] were 4.6 µM and 5.2 µM, respectively.
